Results taken from PMC12520456, “Regulating Enzyme Activity via Microaggregates Mediated by Phase Separation” (Advanced Science, 2025).
Non-standard residues stand in square brackets, D forms with d. Residues, ends and D or L forms follow the SMILES beside them.

Tests used:
[1] = tested on: NIH-3T3 or HUVEC; assay: Annexin V/PI apoptosis assay by flow cytometry; assay type: cell-based; conditions: 48 h; DPMD, also pre-incubated with trypsin or chymotrypsin; Figure S14B
Description: and the product's absorbance at […] was dynamically and real-time monitored using a microplate […]
During the chymotrypsin activity assay, DPMD was incorporated into chymotrypsin. The final concentration of chymotrypsin was set at 10 μg/mL, and the final concentration of DPMD was 5 mg/mL. In the corresponding control group, an equal volume of the buffer solution prepared by the kit was added. Subsequently, the enzyme-peptide mixture was added to the reaction system containing the substrate N-Benzoyl-L-Tyrosine Ethyl Ester (BTEE) at a ratio of 1:100 (where the proportion of the enzyme-peptide mixture solution was 1) for the detection of enzyme activity. The reaction was carried out at 25 ℃, and the product's absorbance at 256 nm was dynamically and real-time monitored using a microplate reader. The experimental result was represented by the enzyme reaction's degree of completion. All the tests were repeated three independent times.
NIH-3T3 cells were obtained from the National Collection of Authenticated Cell Cultures. […] Cell viability was evaluated by the CCK-8 assay (Dojindo) at 1-, 3-, 5-, and 7-days post-treatment. […] The absorbance at 450 nm was recorded using a microplate reader […]
was performed using an Annexin V-Alexa Fluor 647/PI kit (Solarbio) according to the manufacturer’ s protocol. […] Samples were analyzed within 1h on a Sony MA900 flow cytometer.
3.12 Animal fluorescence imaging […]

[2] = tested on: postoperative pancreatic fistula (POPF); assay: Rat pancreatic common duct transection (lethal) POPF model; assay type: in vivo
Description: In order to challenge the efficacy of DPMD in emergency treatments for POPF, a lethal rat model of POPF was established through transection of the main pancreatic duct. After 8 h post‐surgical modeling, evidence of severe POPF was observed through the presence of leaky Chymotrypsin (Figure S11, Supporting Information). At this critical juncture, DPMD, LPMD or an equal volume normal saline solution were administered via syringe injection into the abdominal cavity near the pancreas. […] Consequently, all […] rats subjected to the mock treatment succumbed to three days post‐surgical modeling, while LPMD only extended the median survival from 2 days in Ctrl to 3 days in LPMD (Figure 4D). […] Furthermore, both DPMD and LPMD treatments decreased inflammation markers including TNF‐α, IL‐6, IL‐8, IL‐33 sST2, CRP, HMGB1, MPO, PAF, PCT, PGE2 and SAA present in rat serum (Figure 4G).
Without damaging the surrounding pancreatic tissue and capillaries, a transverse incision on the pancreatic splenic duct was performed using micro-scissors. Successful modelling is confirmed by observing external leakage of pancreatic fluid. Place a self-made drainage tube into the rat's abdominal cavity with its outlet positioned at the site of the transected splenic duct, then exit through the abdominal wall and fix it there.
3.14 Construction of rat pancreatic common duct transection model
Animal studies were performed according to the protocols approved by the Institution Guidelines and were approved by the Laboratory Animal Center of Xijing Hospital of The Fourth Military Medical University (No. IACUC-20220308). ALL rats were purchased from the Laboratory Animal Center of The Fourth Military Medical University. The rats were housed under standard specific pathogen-free conditions with a 12h–12h light–dark cycle.
The preoperative preparation and postoperative care for the rat model were consistent with those of the rat pancreatic splenic duct transection pancreatic fistula model, except for the transecting of the pancreatic common duct of the pancreas in modeling. A custom-made drainage tube outlet was positioned around the area where the pancreatic common duct was transected.
3.15 Evaluation of the effect of DPMD on pancreatic duct transection model The male SD rats were randomly assigned to six rats in each group. Prepare a pancreatic duct transection model with a pancreatic fistula and apply 0.3 mL of normal saline, 0.3 ml of DPMD, and 0.3 mL of LPMD at the incision site. After 3days, administer 3 mL of MeO-Succ-Arg-Pro-Tyr-AMO solution (ATT Bioquest) to the pancreatic stump and surrounding tissues for fluorescence imaging in real-time under dark field conditions while using an API filter. Blood and ascitic fluid

Compound: CC[C@@H](C)[C@@H](NC(=O)[C@@H](CCC(N)=O)NC(=O)[C@H](NC(=O)[C@@H](Cc1ccc(O)cc1)NC(=O)CNC(=O)[C@@H](CC(C)C)NC(=O)[C@H](NC(=O)[C@@H](CO)NC(=O)CNC(=O)[C@@H](C)NC(=O)[C@@H](CC(=O)O)NC(=O)[C@@H](C)NC(=O)[C@@H](CCCNC(=N)N)NC(=O)[C@@H](C)NC(=O)[C@@H](CC(=O)O)NC(=O)[C@@H](C)NC(=O)[C@@H](CCCNC(=N)N)NC(=O)[C@@H](C)NC(=O)[C@@H](CC(=O)O)NC(=O)[C@@H](C)NC(=O)[C@@H](CCCNC(=N)N)NC(=O)[C@@H](C)NC(=O)[C@@H](CC(=O)O)NC(=O)[C@@H](C)NC(=O)[C@H](N)CCCNC(=N)N)C(C)C)[C@H](C)CC)C(=O)N[C@H](CCCNC(=N)N)C(=O)O [DPMD, Ac‐(D‐RADA)4‐CONH2] (H-[dR][dA][dD][dA][dR][dA][dD][dA][dR][dA][dD][dA][dR][dA][dD][dA]G[dS][dV][dL]G[dY][dI][dQ][dI][dR]-OH; N-terminus and C-terminus assumed)
- apoptosis or necrosis (Annexin V/PI) [1]: no increase in apoptosis or necrosis
- chymotrypsin leakage by fluorescence imaging ([2]; 3 day after treatment, laparotomy, Figure 4B): halted the leakage almost entirely
- ascitic and serum amylase and lipase levels ([2]; compared to mock treatment, Figure 4C): statistically significant reduction
- deaths during the seven-day observation period ([2]; injection into abdominal cavity 8 h after modeling, all eight mock-treated rats died within three days): none of the rats treated with DPMD died
- H&E staining of pancreatic tissue ([2]; three days after surgery, Figure 4E): reduced edema and inflammatory cell infiltration
- serum inflammation markers (TNF-α, IL-6, IL-8, IL-33, sST2, CRP, HMGB1, MPO, PAF, PCT, PGE2, SAA) ([2]; within 7 days after surgery, Figure 4G): decreased
